Columns and labels:
CHI Log D procedure = type: physicochemical; details: for CHI Log D: pH 7.4; for chromatographic logD: pH 7.4, CHI Log D
[1] = target: T1, full-length B-Catenin (Uniprot ID P35222) (Homo sapiens, UniProt P35222); assay: Alphascreen binding assay (beta-catenin / biotin-TCF4 10-53)
T1 construct: 65 nM full-length B-Catenin (Uniprot ID P35222)
T1 sequence (P35222 1-781): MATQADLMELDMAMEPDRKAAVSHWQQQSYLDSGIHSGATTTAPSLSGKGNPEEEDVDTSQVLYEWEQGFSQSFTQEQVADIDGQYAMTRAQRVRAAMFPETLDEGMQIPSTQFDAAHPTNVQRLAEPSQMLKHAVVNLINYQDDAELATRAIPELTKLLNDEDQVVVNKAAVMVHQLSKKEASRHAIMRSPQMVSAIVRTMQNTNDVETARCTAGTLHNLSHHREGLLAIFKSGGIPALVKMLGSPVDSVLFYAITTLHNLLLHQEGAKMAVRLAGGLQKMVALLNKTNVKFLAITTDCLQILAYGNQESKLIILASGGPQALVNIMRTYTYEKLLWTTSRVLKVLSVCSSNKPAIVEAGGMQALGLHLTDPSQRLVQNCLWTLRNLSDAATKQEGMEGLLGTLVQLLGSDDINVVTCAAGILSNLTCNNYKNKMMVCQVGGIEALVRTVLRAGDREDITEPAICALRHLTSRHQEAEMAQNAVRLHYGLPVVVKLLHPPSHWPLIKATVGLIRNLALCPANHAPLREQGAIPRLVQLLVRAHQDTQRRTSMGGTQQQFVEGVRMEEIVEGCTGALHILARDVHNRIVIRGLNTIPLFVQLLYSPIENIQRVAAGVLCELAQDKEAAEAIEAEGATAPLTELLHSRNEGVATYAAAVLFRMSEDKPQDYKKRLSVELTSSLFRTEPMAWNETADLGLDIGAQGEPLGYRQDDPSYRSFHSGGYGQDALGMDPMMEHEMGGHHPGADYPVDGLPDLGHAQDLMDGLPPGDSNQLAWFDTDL
Method in brief: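 Final concentrations: 65 nM full-length human β-catenin plus 10 nM biotin-TCF4(10-53) peptide, test peptide 3-fold from 10 uM to 5 nM, preincubated 15 min at 20 °C in Tris pH 8.0/250 mM NaCl buffer. Nickel-chelate AlphaScreen donor/acceptor beads then added for 60 min in the dark; duplicate reads fitted to 1:1 binding model with Hill slope.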

CHI Log D (CHI Log D procedure)	EC50 [1]	chromatographic logD (CHI Log D procedure)	SMILES
2.209	2230 nM		CC(=O)N1CCC[C@]12CC=CCCCC1(CCCC=CCCCCCC[C@@](C)(C(=O)N[C@@H](Cc3ccc4ccccc4c3)C(=O)N[C@@H](Cc3c[nH]c4ccccc34)C(=O)N[C@@H](CCC(N)=O)C(N)=O)NC(=O)[C@H](C(C)C)NC(=O)[C@H](Cc3ccccc3)NC(=O)[C@H](C)NC(=O)[C@H](C)NC(=O)[C@H](CC(=O)O)NC(=O)[C@H](CC(=O)O)NC1=O)NC(=O)[C@H](C)NC(=O)[C@H](CC(=O)O)NC2=O (stereo partly drawn) [I-278, Ac-PL3-Asp-Ala-B5-Asp-Asp-Ala-Ala-Phe-Val-S8-2NapA-Trp-Gln-NH2]
1.297	1940 nM		CC[C@H](C)[C@H](NC(=O)[C@H](CC(=O)O)NC(C)=O)C(=O)N[C@]1(C)CCN(C)C(=O)OCC=CCCCCC[C@@](C)(C(=O)N[C@@H](Cc2ccccc2)C(=O)N[C@@H](Cc2c[nH]c3ccccc23)C(=O)N[C@@H](Cc2c[nH]cn2)C(N)=O)NC(=O)[C@H](CCC(N)=O)NC(=O)[C@H](Cc2ccccc2)NC(=O)[C@H](C)NC(=O)[C@H](C)NC(=O)[C@H](CC(=O)O)NC(=O)[C@H](CC(=O)O)NC1=O [I-150, Ac-Asp-Ile-RdN-Asp-Asp-Ala-Ala-Phe-Gln-S7-Phe-Trp-His-NH2]
2.252	1280 nM		CC(=O)N1CCC[C@]12CC=CCCCC1(CCCC=CCCCCCC[C@@](C)(C(=O)N[C@@H](Cc3ccccc3)C(=O)N[C@@H](Cc3c[nH]c4ccccc34)C(=O)N[C@@H](CCC(N)=O)C(N)=O)NC(=O)[C@H](C(C)C)NC(=O)[C@H](Cc3ccccc3)NC(=O)[C@H](C)NC(=O)[C@H](C)NC(=O)[C@H](CC(N)=O)NC(=O)[C@H](CC(=O)O)NC1=O)NC(=O)[C@H](C)NC(=O)[C@H](CC(=O)O)NC2=O (stereo partly drawn) [I-124, Ac-PL3-Asp-Ala-B5-Asp-Asn-Ala-Ala-Phe-Val-S8-Phe-Trp-Gln-NH2]
2.074	3470 nM		CC(=O)N1CCC[C@]12CC=CCCCC1(CCCC=CCCCCCC[C@@](C)(C(=O)N[C@@H](Cc3ccccc3)C(=O)N[C@@H](Cc3c[nH]c4ccccc34)C(=O)N[C@@H](CCC(N)=O)C(N)=O)NC(=O)[C@H](C(C)C)NC(=O)[C@H](Cc3ccc(C(F)(F)F)cc3)NC(=O)[C@H](C)NC(=O)[C@H](C)NC(=O)[C@H](CC(=O)O)NC(=O)[C@H](CC(=O)O)NC1=O)NC(=O)[C@H](C)NC(=O)[C@H](CC(=O)O)NC2=O (stereo partly drawn) [I-241, Ac-PL3-Asp-Ala-B5-Asp-Asp-Ala-Ala-4F3MeF-Val-S8-Phe-Trp-Gln-NH2]
2.239	1480 nM		CC(=O)N1CCC[C@]12CC=CCCCC1(CCCC=CCCCCCC[C@@](C)(C(=O)N[C@@H](Cc3ccccc3)C(=O)N[C@@H](Cc3c[nH]c4ccccc34)C(=O)N[C@@H](CCC(N)=O)C(N)=O)NC(=O)[C@H](C(C)C)NC(=O)[C@H](Cc3ccccc3)NC(=O)[C@H](C)NC(=O)[C@H](C)NC(=O)[C@H](CCC(N)=O)NC(=O)[C@H](CC(=O)O)NC1=O)NC(=O)[C@H](C)NC(=O)[C@H](CC(=O)O)NC2=O (stereo partly drawn) [I-126, Ac-PL3-Asp-Ala-B5-Asp-Gln-Ala-Ala-Phe-Val-S8-Phe-Trp-Gln-NH2]
	5450 nM	2.43	CC(=O)N1CCC[C@]12CC=CCCCC1(CCCC=CCCCCCC[C@@](C)(C(=O)N[C@@H](Cc3ccccc3)C(=O)N[C@@H](Cc3ccc4ccccc4c3)C(N)=O)NC(=O)[C@H](C(C)C)NC(=O)[C@H](Cc3ccccc3)NC(=O)[C@H](C)NC(=O)[C@H](C)NC(=O)[C@H](CCC(=O)O)NC(=O)[C@H](CC(=O)O)NC1=O)NC(=O)[C@H](C)NC(=O)[C@H](CC(=O)O)NC2=O (stereo partly drawn) [I-141, Ac-PL3-Asp-Ala-B5-Asp-Glu-Ala-Ala-Phe-Val-S8-Phe-2NapA-NH2]
1.17	4940 nM		CC(=O)N[C@@H](Cc1ccccc1)C(=O)N[C@@H](CC(=O)O)C(=O)N[C@@H](C)C(=O)N[C@]1(C)CCCCCCC=CCOC(=O)N2CC[C@@](C(=O)N[C@@H](Cc3ccccc3)C(=O)N[C@@H](Cc3c[nH]c4ccccc34)C(=O)N[C@@H](CCC(N)=O)C(N)=O)(C2)NC(=O)[C@H](C(C)C)NC(=O)[C@H](CCc2ccc(O)cc2)NC(=O)[C@H](C)NC(=O)[C@H](C)NC(=O)[C@H](CC(=O)O)NC(=O)[C@H](CC(=O)O)NC1=O [I-119, Ac-Phe-Asp-Ala-R8-Asp-Asp-Ala-Ala-hTyr-Val-PyrS-Phe-Trp-Gln-NH2]
1.346	797 nM		CC(=O)N1CCC[C@]12CC=CCCCC1(CCCC=CCOC(=O)N(C)CCC[C@@](C)(C(=O)N[C@@H](Cc3ccccc3)C(=O)N[C@@H](Cc3c[nH]c4ccccc34)C(=O)N[C@@H](CCC(N)=O)C(N)=O)NC(=O)[C@H](C(C)C)NC(=O)[C@H](Cc3ccccc3)NC(=O)[C@H](C)NC(=O)[C@H](C)NC(=O)[C@H](CCC(=O)O)NC(=O)[C@H](CC(=O)O)NC1=O)NC(=O)[C@H](C)NC(=O)[C@H](CC(=O)O)NC2=O (stereo partly drawn) [I-130, Ac-PL3-Asp-Ala-B5-Asp-Glu-Ala-Ala-Phe-Val-SeN-Phe-Trp-Gln-NH2]
	6530 nM	3.02	CC(=O)N1CCC[C@]12CC=CCCCC1(CCCC=CCCCCCC[C@@](C)(C(=O)N[C@@H](Cc3ccccc3)C(=O)N[C@@H](Cc3c[nH]c4ccccc34)C(=O)N[C@@H](CCC(N)=O)C(N)=O)NC(=O)[C@H](C(C)C)NC(=O)[C@H](Cc3ccccc3)NC(=O)[C@H](C)NC(=O)[C@H](C)NC(=O)[C@H](Cc3csc4ccccc34)NC(=O)[C@H](CC(=O)O)NC1=O)NC(=O)[C@H](C)NC(=O)[C@H](CC(=O)O)NC2=O (stereo partly drawn) [I-231, Ac-PL3-Asp-Ala-B5-Asp-BztA-Ala-Ala-Phe-Val-S8-Phe-Trp-Gln-NH2]
3.044	5810 nM		CC(=O)N1CCC[C@]12CC=CCCCC1(CCCC=CCCCCCC[C@@](C)(C(=O)N[C@@H](Cc3ccccc3)C(=O)N[C@@H](Cc3c[nH]c4ccccc34)C(=O)N[C@@H](CCC(N)=O)C(N)=O)NC(=O)[C@H](C(C)C)NC(=O)[C@H](Cc3ccccc3)NC(=O)[C@H](C)NC(=O)[C@H](C)NC(=O)[C@H](CCC(=O)O)NC(=O)[C@H](Cc3ccccn3)NC1=O)NC(=O)[C@H](C)NC(=O)[C@H](CC(=O)O)NC2=O (stereo partly drawn) [I-229, Ac-PL3-Asp-Ala-B5-2pyrA-Glu-Ala-Ala-Phe-Val-S8-Phe-Trp-Gln-NH2]
1.497	7630 nM		CC(=O)N[C@@H](Cc1ccccc1)C(=O)N[C@@H](CC(=O)O)C(=O)N[C@@H](C)C(=O)N[C@]1(C)CCCCCCC=CCOC(=O)N2CC[C@@](C(=O)N[C@@H](Cc3c(F)c(F)c(F)c(F)c3F)C(=O)N[C@@H](Cc3c[nH]c4ccccc34)C(=O)N[C@@H](CCC(N)=O)C(N)=O)(C2)NC(=O)[C@H](C(C)C)NC(=O)[C@H](Cc2ccccc2)NC(=O)[C@H](C)NC(=O)[C@H](C)NC(=O)[C@H](CC(=O)O)NC(=O)[C@H](CC(=O)O)NC1=O [I-226, Ac-Phe-Asp-Ala-R8-Asp-Asp-Ala-Ala-Phe-Val-PyrS-Pff-Trp-Gln-NH2]
	2140 nM	2.41	CC(=O)N1CCC[C@]12CC=CCCCC1(CCCC=CCCCCCC[C@@](C)(C(=O)N[C@@H](Cc3ccccc3)C(=O)N[C@@H](Cc3c[nH]c4ccccc34)C(=O)N[C@@H](CCC(N)=O)C(N)=O)NC(=O)[C@H](C(C)C)NC(=O)[C@H](Cc3ccccc3)NC(=O)[C@H](C)NC(=O)[C@H](C)NC(=O)[C@H](CCC(=O)O)NC(=O)[C@H](Cc3c[nH]cn3)NC1=O)NC(=O)[C@H](C)NC(=O)[C@H](CC(=O)O)NC2=O (stereo partly drawn) [I-206, Ac-PL3-Asp-Ala-B5-His-Glu-Ala-Ala-Phe-Val-S8-Phe-Trp-Gln-NH2]
